# “Also recorded” adds a separate entry of the source. Like-named read-outs stand apart in the source and are kept apart here.
# How the values were obtained:
# P-glycoprotein [1] = biological target: T1, P-glycoprotein (Homo sapiens, UniProt P08183); test: Rh123 accumulation assay of P-glycoprotein activity in human PBL
# Protocol: KG1 cell line was maintained in Iscove's modified Dulbecco medium with 20% fetal calf serum (FCS) and 2 mM L-glutamine, 100 units/ml penicillin and 100 μg/ml streptomycin (GIBCO Laboratories, Grand Island, N.Y.).
# A functional assay was used to detect changes in P-glycoprotein activity in human PBL treated with different agents that induce lymphoid differentiation or activation, based on flow cytometric analysis of cellular accumulation of Rh123, which is a P-glycoprotein-transported fluorescent mitochondrial dye. In this assay, cells expressing little or no P-glycoprotein stain brightly with Rh123, whereas cells with higher levels of P-glycoprotein activity appear Rh123-dull. […] Since the best-known cellular effect of TPA is the stimulation of PKC, it was also tested whether DOG, a cell-permeable diacylglycerol and a physiological stimulant of PKC, would have an effect on Rh123 accumulation in PBL.
# MDR1 [2] = assay type: cell-based, human
# Protocol: The times of drug exposure are indicated.
# (§1) (Commercially-available kits (for example, from GIBCO/BRL, Gaithersburg, Md.) can be advantageously modified for making cDNA using random hexamers.) PCR is then performed using the following primers: […]
# Next, it was tested whether drug-induced MDR1 expression was maintained after the cytotoxic treatment. […] At different time points, MDR1 expression in the surviving cells was analyzed by dye efflux and immunofluorescence labeling with UIC2 (FIG. 3c) or by cDNA-PCR (FIG. 4e).
# P-glycoprotein [3] = biological target: T1, P-glycoprotein; test: Dye efflux (Rh123 or DiOC2 (3)) assay of drug-treated K562 cells
# Protocol: Top panel: Rh123 efflux from untreated cells (-) and from cells treated with 50 μM Ara-C (ARA) for 12 hours or with 10 μAra-C for 2 to 3 days.
# MDR1 [4] = test: cDNA-PCR / flow cytometric analysis of MDR1 induction by PKC agonists; assay type: cell-based, human
# Protocol: Neomycin sulfate (Calbiochem) was dissolved in sterile, deionized water.
# (§2) P-glycoprotein expression on the cell surface was analyzed using a P-glycoprotein-specific mouse IgG2a monoclonal antibody (mAB) UIC2 (Mechetner and Roninson, 1992, Proc. Natl. Acad. Sci. USA 89:5824-5828). Mouse IgG2a isotype control antibody was obtained from Sigma. For staining of PBL with UIC2 mAB or isotype control, 10^6 cells were stained at 4° C. with 10 μg of the antibody for 30 minutes and, after two washes, stained for 30 minutes with 10 μg of FITC-conjugated goat anti-mouse IgG2a antibody (Fisher Scientific, Fairlawn, N.J.), diluted 1:2 with PBS plus 2% FCS. Cells were then washed twice with ice-cold PBS plus 2% FCS, stained with PI and kept on ice until analysis. Essentially the same protocol was used for staining of other cell types except that 2 μg of the secondary antibody were used per 10^6 cells. In some experiments, phycoerythrine (PE)-conjugated goat anti-mouse IgG2a was used as the secondary antibody; no PI was added in such cases. Flow cytometric analysis was conducted on a Coulter Epics 753 Flow Cytometer.
# RNA was extracted from approximately 10^6 cells by a small-scale sodium dodecyl sulfate extraction procedure (Peppel and Baglioni, 1990, BioTechniques 9:711-713). In the alternative, RNA was isolated from cells using the TRIzol method (commercially available from GIBCO/BRL). cDNA synthesis and polymerase chain reaction (PCR) amplification of MDR1 and β2 -microglobulin cDNA sequences were carried out essentially as described (Noonan et al., 1990, Proc. Natl. Acad. Sci. USA 87:7160-7164; Noonan and Roninson, 1991, pp. 319-333 In Roninson (Ed.), Molecular and Cellular Biology of Multidrug Resistance in Tumor Cells, Plenum Press, New York). Briefly, cDNA was prepared using the method of Krug and Berger (1987, Meth. Enzymol. 152: 316-324), with the modification that random hexamers were substituted for oligo(dT) as primers for cDNA synthesis. (Commercially-available kits (for example, from GIBCO/BRL, Gaithersburg, Md.) can be advantageously modified for making cDNA using random hexamers.) PCR is then performed using the following primers: […]
# (§3) (where β2 M represents β2 microglobulin). PCR was performed for β2 M experiments under a regime consisting of 1 cycle comprising denaturation at 94° C. for 3 minutes, primer annealing at 60° C. for 30 seconds, and primer extension at 72° C. for 1 minute, followed by 19 cycles comprising denaturation at 94° C. for 30 seconds, primer annealing at 60° C. for 30 seconds, and primer extension at 72° C. for 1 minute, followed by a final cycle comprising denaturation at 94° C. for 30 seconds, primer annealing at 60° C. for 30 seconds, and primer extension at 72° C. for 5 minutes. MDR1 cDNA sequences were amplified using the identical protocol as for β2 M, but extending the amplification from 19 cycles to 25 cycles. In addition, the cDNA-PCR amplification protocol contained the following modifications: (i) Taq DNA polymerase was added to the PCR mixtures after initial heating of the samples to 94° C. (ii) The yield of the β2 -microglobulin-specific band, obtained after 22-28 cycles of PCR, was used as the primary criterion for equalizing the starting amounts of the cDNA templates in different preparations, in order to account for differential RNA degradation in cells subjected to different types of treatment. […] PCR products were detected by autoradiography.
# tumor [5] = settings: literature; cited from earlier work
# PKC = settings: literature; cited from earlier work
# MDR1 [6] = test: Inhibition of PKC agonist (TPA or DOG) induced MDR1 expression; assay type: cell-based, human; settings: for inhibition of TPA-induced MDR1 expression: H-9 cells, TPA 10 ng/ml overnight
# Protocol: as §1
# Cells were plated in 6-well Falcon tissue culture plates at 3,300 cells per well, and incubated in the appropriate concentrations of drugs. […] or TPA, with the exception of herbimycin A, which was added 12 hours prior to Ara-C or TPA, and tyrphostins A25 and B46, which were each added 16 hours prior to MDR1 induction by the addition of Ara-C or TPA. Cells were incubated overnight (TPA) or for 10 hours (Ara-C) at 37° C. under an atmosphere of 5% CO2 after the addition of the MDR1 inducing agents before harvesting for cDNA-PCR analysis.
# (§4) cDNA-PCR analyses on each culture treated with drugs, or in control cultures incubated in the absence or presence of Ara-C or TPA alone, were performed as described in Section 6.1.3 above.
# MDR1 [7] = test: Inhibition of cytotoxic drug (Ara-C) induced MDR1 expression by protein kinase inhibitors; assay type: cell-based, human
# Protocol: FIG. 5. Effect of protein kinase inhibitors on MDR1 mRNA induction by cytotoxic drugs in H9 cells. […]
# as §1, §3
# Cells were plated in 6-well Falcon tissue culture plates at 3,300 cells per well, and incubated in the appropriate concentrations of drugs. Each of the protein kinase inhibitors to be tested were added at their appropriate final concentrations 45 minutes prior to MDR1 induction by the addition of Ara-C or TPA, with the exception of herbimycin A, which was added 12 hours prior to Ara-C or TPA, and tyrphostins A25 and B46, which were each added 16 hours prior to MDR1 induction by the addition of Ara-C or TPA. Cells were incubated overnight (TPA) or for 10 hours (Ara-C) at 37° C. under an atmosphere of 5% CO2 after the addition of the MDR1 inducing agents before harvesting for cDNA-PCR analysis.
# In addition to these conditions, the analysis of certain drugs imposed added requirements. For experiments using calphostin C, cells were incubated under direct white light illumination. For experiments using D,L-threo-sphingosine, the cell culture medium was pre-treated with the appropriate concentration of the drug for one hour at 37° C. with continuous gentle mixing. After this pre-treatment, cells were resuspended in media supplemented with drug and incubated for 45 minutes as described above.
# as §4
# To further evaluate the capacity of protein kinase inhibitors to suppress MDR1 induction by cytotoxic drugs and PKC agonists, H-9 human T cell leukemia cells were used in cDNA-PCR assays to examine induced MDR1 mRNA expression levels in the presence of such protein kinase inhibitors.
# MRP = test: Inhibition of MRP expression in H-9 cells; assay type: cell-based, human; design: Inhibition of MRP Expression: key to the marks not given beside the values; settings: 32 μM
# Protocol: PCR was performed using the following primers: […]
# (where β2 M represents β2 microglobulin). PCR was performed for β2 M experiments under a regime consisting of 1 cycle comprising denaturation at 94° C. for 3 minutes, primer annealing at 60° C. for 30 seconds, and primer extension at 72° C. for 1 minute, followed by 19 cycles comprising denaturation at 94° C. for 30 seconds, primer annealing at 60° C. for 30 seconds, and primer extension at 72° C. for 1 minute, followed by a final cycle comprising denaturation at 94° C. for 30 seconds, primer annealing at 60° C. for 30 seconds, and primer extension at 72° C. for 5 minutes.
# P-glycoprotein [8] = test system: P-glycoprotein
# Protocol: as §2, with “Mouse” for “P-glycoprotein expression on the cell surface was analyzed using a P-glycoprotein-specific mouse IgG2a monoclonal antibody (mAB) UIC2 (Mechetner and Roninson, 1992, Proc. Natl. Acad. Sci. USA 89:5824-5828). Mouse”, “cases.” for “cases. Flow cytometric analysis was conducted on a Coulter Epics 753 Flow Cytometer.”
# tumor [9] = settings: nude mice; Meyer et al., 1989; cited from earlier work
# T1 sequence (P08183 whole entry): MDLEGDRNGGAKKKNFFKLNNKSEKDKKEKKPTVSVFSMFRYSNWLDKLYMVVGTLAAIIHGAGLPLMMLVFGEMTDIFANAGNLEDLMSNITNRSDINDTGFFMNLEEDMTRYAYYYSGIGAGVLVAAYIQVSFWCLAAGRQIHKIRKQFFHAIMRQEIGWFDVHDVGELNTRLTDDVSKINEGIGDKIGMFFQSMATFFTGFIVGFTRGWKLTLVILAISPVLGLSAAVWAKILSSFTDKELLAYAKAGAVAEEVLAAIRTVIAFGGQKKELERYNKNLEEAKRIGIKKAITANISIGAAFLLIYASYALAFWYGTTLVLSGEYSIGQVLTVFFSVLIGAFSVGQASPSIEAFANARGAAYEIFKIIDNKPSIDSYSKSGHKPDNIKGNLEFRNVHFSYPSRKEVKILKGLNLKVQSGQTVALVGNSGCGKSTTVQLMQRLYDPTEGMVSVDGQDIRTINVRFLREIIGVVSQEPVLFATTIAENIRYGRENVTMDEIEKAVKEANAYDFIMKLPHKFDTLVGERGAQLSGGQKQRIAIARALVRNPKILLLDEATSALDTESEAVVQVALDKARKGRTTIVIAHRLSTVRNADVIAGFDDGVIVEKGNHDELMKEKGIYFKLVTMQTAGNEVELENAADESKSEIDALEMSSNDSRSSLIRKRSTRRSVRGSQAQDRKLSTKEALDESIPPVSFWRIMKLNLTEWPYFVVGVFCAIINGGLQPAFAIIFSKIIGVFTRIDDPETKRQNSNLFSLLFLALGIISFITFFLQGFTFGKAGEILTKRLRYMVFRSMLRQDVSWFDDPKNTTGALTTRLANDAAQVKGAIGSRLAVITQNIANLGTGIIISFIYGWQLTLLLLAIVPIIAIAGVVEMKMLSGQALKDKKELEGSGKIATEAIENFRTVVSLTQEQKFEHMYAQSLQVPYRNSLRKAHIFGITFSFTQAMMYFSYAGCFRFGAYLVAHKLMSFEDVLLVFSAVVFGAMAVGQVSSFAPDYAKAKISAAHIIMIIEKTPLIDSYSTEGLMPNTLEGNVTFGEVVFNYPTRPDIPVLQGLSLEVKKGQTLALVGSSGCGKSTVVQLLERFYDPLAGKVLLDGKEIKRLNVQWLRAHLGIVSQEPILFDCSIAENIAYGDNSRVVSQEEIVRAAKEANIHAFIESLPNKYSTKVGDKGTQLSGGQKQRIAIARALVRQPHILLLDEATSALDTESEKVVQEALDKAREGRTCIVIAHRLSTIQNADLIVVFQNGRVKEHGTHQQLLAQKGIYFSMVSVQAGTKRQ
compound,measurement,setting,value
CNc1ccc2oc(C[C@H]3O[C@@]4(CC[C@H]3C)O[C@H]([C@H](C)C(=O)c3ccc[nH]3)[C@H](C)C[C@H]4C)nc2c1C(=O)O [A23187],effect on P-glycoprotein activity (Rh123 accumulation),P-glycoprotein [1]; human PBL,No apparent effects on P-glycoprotein
COc1cccc2c1C(=O)c1c(O)c3c(c(O)c1C2=O)C[C@@](O)(C(=O)CO)C[C@@H]3O[C@H]1C[C@H](N)[C@H](O)[C@H](C)O1 [Adriamycin],MDR1 mRNA expression,MDR1 [2]; H9 T-cell leukemia,MDR1 mRNA expression was induced
same,MDR1 mRNA induction,MDR1 [2]; K562 cells,induce MDR1 mRNA expression
same,maintenance of MDR1 expression after removal of the drug,"MDR1 [2]; K562 cells treated 3-5 days, then grown in absence of drug",least several weeks
same,MDR1 mRNA expression,"MDR1 [2]; KB-3-1 epidermoid carcinoma, 2 days",MDR1 mRNA expression was induced
same,"MDR1 induction, mRNA and protein levels","MDR1 [2]; human leukemia and solid-tumor derived cell lines, subpopulation of treated cells","MDR1 induction, both at the mRNA and at the protein levels, was observed"
same,treated cells showing efflux of Rh123 or DiOC2 (3),P-glycoprotein [3],3-10%
"CCCCCCCC(=O)OCC(CO)OC(=O)CCCCCCC (centres unmarked) [DOG, 1,2-dioctanoylglycerol]",effect on P-glycoprotein activity (Rh123 accumulation),P-glycoprotein [1]; human PBL,decreased Rh123 accumulation
same,induction of MDR1 mRNA and P-glycoprotein,MDR1 [4]; H9 cells,clear-cut induction of MDR1 mRNA and P-glycoprotein
same,induction of MDR1 mRNA and P-glycoprotein,MDR1 [4]; K562 cells,clear-cut induction of MDR1 mRNA and P-glycoprotein
CN[C@@H]1C[C@H]2O[C@@](C)([C@@H]1OC)n1c3ccccc3c3c4c(c5c6ccccc6n2c5c31)C(=O)N[C@H]4O [UCN-01],antitumor activity in vivo,tumor [5],antitumor activity in vivo
O=CN/C=C/c1cc(O)ccc1O [erbstatin],inhibition of protein kinase C,PKC,protein kinase C inhibitors
same,antitumor activity in vivo,tumor [5],antitumor activity in vivo
"COC(=O)C=Cc1cc(O)ccc1O [methyl-2,5-dihydroxycinnamate]",inhibition of TPA-induced MDR1 expression,MDR1 [6]; 32 μM,completely inhibited TPA-induced MDR1 expression
same,inhibition of Ara-C induced MDR1 expression,"MDR1 [7]; H9 cells, 25 μM Ara-C 10 h, 32 μM",++++
same,inhibition of Ara-C induced MDR1 expression,"MDR1 [7]; H-9 cells, 32 μM",completely inhibit Ara-C induced MDR1 expression
same,inhibition of Ara-C induced MDR1 expression,"MDR1 [7]; H-9 cells, 32 μM and 64 μM",inhibits MDR1 expression at both 32 μM and 64 μM to essentially the same degree
same,Inhibition of MRP Expression,MRP,++++
same,inhibition of MRP expression,MRP,strongly inhibited; also recorded: capable of inhibiting MRP expression
CN[C@@H]1C[C@H]2O[C@@](C)([C@@H]1OC)n1c3ccccc3c3c4c(c5c6ccccc6n2c5c31)C(=O)NC4 [staurosporine],inhibition of DOG-induced MDR1 induction,"MDR1 [6]; H9 cells, staurosporine 30 nM, 30 minutes prior to DOG",completely abolished MDR1 induction
same,inhibition of TPA-induced MDR1 induction,"MDR1 [6]; H9 cells, staurosporine 30 nM, 30 minutes prior to TPA",completely abolished MDR1 induction
same,inhibition of TPA-induced MDR1 expression,MDR1 [6]; 30 nM,completely inhibited TPA-induced MDR1 expression
same,"prevention of MDR1 induction by TPA, diacylglycerol, Ara-C, vinblastine, methotrexate and Adriamycin","MDR1 [7]; P-glycoprotein-negative cells, 30 nM",prevent MDR1 induction
same,"P-glycoprotein expression, inhibitor alone","P-glycoprotein [8]; KG1a cells, staurosporine 100 nM",significant increase in P-glycoprotein expression
same,"P-glycoprotein expression, inhibitor alone",P-glycoprotein [8]; KG1 cells,significant increase in P-glycoprotein expression
same,"MDR1 expression, inhibitor alone","P-glycoprotein [8]; P-glycoprotein-negative H9 cells, 30 nM",did not induce MDR1 expression
same,anti-tumor effect at fraction of MTD,tumor [9],1/10
same,maximum tolerated dose (MTD),tumor [9],1 mg/kg
IL-1α,effect on P-glycoprotein activity (Rh123 accumulation),P-glycoprotein [1],No apparent effects on P-glycoprotein

# — patent US5972598A, “Methods for preventing multidrug resistance in cancer cells” (priority 1995, dated 1999)
